From patent US20190105367A1, “ANTIMICROBIAL 4-OXOQUINOLIZINES” (Emergent Product Development Gaithersburg Inc., priority 2011, published 2019) come the findings set out here.

Some results are limits rather than exact numbers.

One test concerns B. thailandensis. Format: cell-based, Burkholderia thailandensis.
The subject of the next test is K. pneumoniae ATCC 33495. The test can be described thus: MIC on K. pneumoniae (Example 5). The following applies: sensitive strain. The format is cell-based, Klebsiella pneumoniae. How it is done: (§1) MIC Values for all compounds were measured against a selection of bacterial strains. The MICs of 4-oxoquinolizines against a selection of Gram-negative and Gram-positive bacterial strains are shown in Table 13 in comparison with known antibiotics.

For the next test, the system named is P. aeruginosa ATCC 27853. The test can be described thus: MIC, selected panel of bacterial strains (Example 5). Format: cell-based, Pseudomonas aeruginosa.
The test system of test [1] is S. aureus ATCC 43300 (MRSA, FQ-S). The test is described as above. The format is cell-based, Staphylococcus aureus. The following applies: for MIC: Staphylococcus aureus, read-out: MICs against Gram positive bacteria S. aureus ATCC 43300 (MRSA, FQ-S).
The test system of a further test is A. baumannii ATCC 19606. Described as above. Format: cell-based, Acinetobacter baumannii. Particulars: for MIC: Acinetobacter baumannii, ATCC19606, read-out: MICs against Gram negative bacteria A. baumannii ATCC 19606.
The test system of a further test is E. coli ATCC 25922. Described as above. The format is cell-based, Escherichia coli.
Test [2] has as its system S. aureus BAA-1556 (USA300-Type) (MRSA, FQ-R). Described as above. Format: cell-based, Staphylococcus aureus. Particulars: for MIC: Staphylococcus aureus, read-out: MICs against Gram positive bacteria S. aureus BAA-1556 (USA300-Type) (MRSA, FQ-R).
For the next test, the system named is B. thailandensis E264. Briefly: microbe, parasite or virus in culture. Format: cell-based, Burkholderia thailandensis.
In the next test the test system is S. aureus ATCC 25923. Briefly: MIC, selected panel of bacterial strains (Example 5). Format: cell-based, Staphylococcus aureus. The following applies: for MIC: Staphylococcus aureus, ATCC25923, read-out: MICs against Gram positive bacteria S. aureus ATCC 25923.
In test [3] the test system is K. pneumoniae BAA-2146 (NDM-1, FQ-R). The test can be described thus: MIC on K. pneumoniae (Example 5). Format: cell-based, Klebsiella pneumoniae. The following applies: quinolone-resistant strain. As to the method:
as §1

Turning to “8-(4-amino-3-ethyl-5-methyl- phenyl)-1-cyclopropyl-9- methyl-4-oxo-quinolizine-3- carboxylic acid [Compound 16]”, the “MIC90 B. thailandensis” value in the test with B. thailandensis is less than 0.048 µg/mL.

As for `Cc1c(-c2cc(F)c(N)cc2F)ccn2c(=O)c(C(=O)[O-])cc(C3CC3)c12.[K+]` [Compound 2K salt, potassium 8-(4-amino-2,5-difluoro-phenyl)-1-cyclopropyl-9-methyl-4-oxo-4H-quinolizine-3-carboxylate], the MIC in the test with K. pneumoniae ATCC 33495 (Klebsiella pneumoniae, ATCC33495, read-out: MICs K. pneumoniae ATCC 33495) is 0.25 µg/mL.

Regarding `Cc1c(-c2ccc(CN)cc2)c(F)cn2c(=O)c(C(=O)[O-])cc(C3CC3)c12.[K+]` [Compound 6K salt], the “MICs against Gram negative bacteria P. aeruginosa ATCC 27853” value with P. aeruginosa ATCC 27853 was 4 to 8 µg/mL. The “MICs against Gram positive bacteria S. aureus ATCC 43300 (MRSA, FQ-S)” value in [1] (MRSA, FQ-S) is 0.064 µg/mL. Besides, the “MICs against Gram negative bacteria A. baumannii ATCC 19606” value with A. baumannii ATCC 19606 stood at 1 µg/mL. Also, the “MICs against Gram negative bacteria E. coli ATCC 25922” value with E. coli ATCC 25922 was in the range of 0.064 to 0.125 µg/mL. In addition, the “MICs against Gram positive bacteria S. aureus BAA-1556 (USA300-Type) (MRSA, FQ-R)” value in test [2] (MRSA, FQ-R) stood at 1 µg/mL. Also, the “MICs against Gram negative bacteria B. thailandensis E264” value in the test with B. thailandensis E264 was 4 µg/mL. In the test with S. aureus ATCC 25923, the “MICs against Gram positive bacteria S. aureus ATCC 25923” value was 0.125 µg/mL.

As for `Cc1c(-c2ccc(N)nc2)ccn2c(=O)c(C(=O)[O-])cc(C3CC3)c12.[K+]` [Compound 33K salt, potassium 8-(6-amino-pyridin-3-yl)-1-cyclopropyl-9-methyl-4-oxo-4H-quinolizine-3-carboxylate], in the test with K. pneumoniae ATCC 33495, the “MICs K. pneumoniae ATCC 33495” value is 0.064 µg/mL. For the same compound, the “MICs K. pneumoniae BAA-2146 (NDM-1, FQ-R)” value in [3] is more than 8 µg/mL.

Consider `Cc1c(-c2ccc3[nH]ncc3c2)ccn2c(=O)c(C(=O)[O-])cc(C3CC3)c12.[K+]` [Compound 35K salt, potassium 8-(1H-indazol-5-yl)-1-cyclopropyl-9-methyl-4-oxo-4H-quinolizine-3-carboxylate], for which the “MICs K. pneumoniae ATCC 33495” value with K. pneumoniae ATCC 33495 was 0.125 µg/mL. Besides, the “MICs K. pneumoniae BAA-2146 (NDM-1, FQ-R)” value in test [3] is more than 8 µg/mL.

As to `Cc1c(-c2cccc(O)c2)ccn2c(=O)c(C(=O)[O-])cc(C3CC3)c12.[K+]` [Compound 56K salt, potassium 1-cyclopropyl-8-(3-hydroxyphenyl)-9-methyl-4-oxo-4H-quinolizine-3-carboxylate], the MIC (in the test with A. baumannii ATCC 19606; in [2]) was 0.125 µg/mL in each case.

For the compound `Cc1c(-c2ccc(O)c(F)c2)ccn2c(=O)c(C(=O)[O-])cc(C3CC3)c12.[K+]` [Compound 70K salt, potassium 8-(3-fluoro-4-hydroxyphenyl)-1-cyclopropyl-9-methyl-4-oxo-4H-quinolizine-3-carboxylate], the MIC in [1] was 50 µg/mL; with A. baumannii ATCC 19606, 0.125 µg/mL; in the test with S. aureus ATCC 25923 it was 50 µg/mL.

For the compound `Cc1c(-c2ccc3[nH]nc(C4CC4)c3c2)ccn2c(=O)c(C(=O)[O-])cc(C3CC3)c12.[K+]` [Compound 71K salt, potassium 8-(3-cyclopropyl-1H-indazol-5-yl)-1-cyclopropyl-9-methyl-4-oxo-4H-quinolizine-3-carboxylate], the MIC came to 50 µg/mL in [1]; 0.125 µg/mL with E. coli ATCC 25922 (Escherichia coli, ATCC25922, read-out: MICs against Gram negative bacteria E. coli ATCC 25922); 0.125 µg/mL in test [2]; 50 µg/mL with S. aureus ATCC 25923.

On to `Cc1c(-c2ccc3sc(N)nc3c2)ccn2c(=O)c(C(=O)[O-])cc(C3CC3)c12.[K+]` [Compound 73K salt, potassium 8-(2-aminobenzo[d]thiazol-5-yl)-1-cyclopropyl-9-methyl-4-oxo-4H-quinolizine-3-carboxylate], for which the MIC is 50 µg/mL in test [1], 0.125 µg/mL with A. baumannii ATCC 19606 and 50 µg/mL in the test on S. aureus ATCC 25923.

`CNc1ccc(-c2ccn3c(=O)c(C(=O)[O-])cc(C4CC4)c3c2C)cn1.[K+]` [Compound 78K salt, potassium 8-(6-(methylamino)pyridin-3-yl)-1-cyclopropyl-9-methyl-4-oxo-4H-quinolizine-3-carboxylate]: the MIC (in the test on A. baumannii ATCC 19606; in test [2]) was 0.125 µg/mL each time.

As to `Cc1cc(-c2ccn3c(=O)c(C(=O)[O-])cc(C4CC4)c3c2C)cnc1N.[K+]` [Compound 79K salt, potassium 8-(6-amino-5-methylpyridin-3-yl)-1-cyclopropyl-9-methyl-4-oxo-4H-quinolizine-3-carboxylate], the MIC in test [1] was found to be 50 µg/mL; in test [2] it was 0.125 µg/mL; in the test with S. aureus ATCC 25923, 50 µg/mL.

For `Cc1n[nH]c2ccc(-c3ccn4c(=O)c(C(=O)[O-])cc(C5CC5)c4c3C)cc12.[K+]` [Compound 80K salt, potassium 8-(3-methyl-1H-indazol-5-yl)-1-cyclopropyl-9-methyl-4-oxo-4H-quinolizine-3-carboxylate], the figures for the MIC (in test [1]; in test [2]; with S. aureus ATCC 25923) were 50 µg/mL, 0.125 µg/mL and 50 µg/mL, respectively.

For `Cc1c(-c2ccc3c(cnn3C)c2)ccn2c(=O)c(C(=O)[O-])cc(C3CC3)c12.[K+]` [Compound 81K salt, potassium 8-(1-methyl-1H-indazol-5-yl)-1-cyclopropyl-9-methyl-4-oxo-4H-quinolizine-3-carboxylate], the MIC amounted to 50 µg/mL in [1], 0.125 µg/mL in the test on A. baumannii ATCC 19606 and 50 µg/mL in the test with S. aureus ATCC 25923.

In the case of `Cc1c(-c2ccc3cn[nH]c3c2)ccn2c(=O)c(C(=O)[O-])cc(C3CC3)c12.[K+]` [Compound 83K salt, potassium 8-(1H-indazol-6-yl)-1-cyclopropyl-9-methyl-4-oxo-4H-quinolizine-3-carboxylate], the MIC turned out to be 50 µg/mL in test [1]; 0.125 µg/mL with B. thailandensis E264 (Burkholderia thailandensis, E264, read-out: MICs against Gram negative bacteria B. thailandensis E264); 50 µg/mL with S. aureus ATCC 25923.
